Like-named read-outs stand apart in the source and are kept apart here.
What was measured:
Experiment in all cases: Test C pre/postemergence
Assay type in all cases: in vivo
[1] = tested on: goosegrass (Eleusine indica); conditions: Eleusine indica; for pest or weed control at 62 g/ha: 62 g ai/ha; for pest or weed control at 125 g/ha: 125 g ai/ha; for pest or weed control at 250 g/ha: 250 g ai/ha; for pest or weed control at 500 g/ha: 500 g ai/ha
In short: (§1)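 Injury scored visually 12–14 days after application on 0–100 scale (100 = complete control), relative to controls. Compounds, formulated with surfactant in non-phytotoxic solvent, applied to soil at planting (pre) or to 1- to 4-leaf plants 2–18 cm tall (post) in greenhouse.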

[2] = tested on: bermudagrass (Cynodon dactylon); conditions: Cynodon dactylon; for pest or weed control at 62 g/ha: 62 g ai/ha; for pest or weed control at 125 g/ha: 125 g ai/ha; for pest or weed control at 125 g/ha / pest or weed control at 250 g/ha / pest or weed control at 500 g/ha: scale 0 to 100; for pest or weed control at 250 g/ha: 250 g ai/ha; for pest or weed control at 500 g/ha: 500 g ai/ha
In short: as §1

[3] = tested on: common ragweed (Ambrosia elatior); conditions: Ambrosia artemisiifolia; for pest or weed control at 62 g/ha: 62 g ai/ha; for pest or weed control at 125 g/ha: 125 g ai/ha; for pest or weed control at 250 g/ha: 250 g ai/ha; for pest or weed control at 500 g/ha: 500 g ai/ha
In short: as §1

[4] = tested on: giant foxtail (Setaria faberii); conditions: Setaria faberi; for pest or weed control at 125 g/ha: 125 g ai/ha; for pest or weed control at 500 g/ha: 500 g ai/ha; for pest or weed control at 62 g/ha: 62 g ai/ha; for pest or weed control at 250 g/ha: 250 g ai/ha
In short: as §1

[5] = tested on: velvetleaf (Abutilon theophrasti); conditions: Abutilon theophrasti; for pest or weed control at 62 g/ha: 62 g ai/ha; for pest or weed control at 125 g/ha: 125 g ai/ha; for pest or weed control at 250 g/ha: 250 g ai/ha; for pest or weed control at 500 g/ha: 500 g ai/ha
In short: as §1

[6] = tested on: eastern black nightshade (Solanum ptycanthum); conditions: Solanum, pre-emergence, Preemergence, read-out: Plant response rating, Nightshade
In short: as §1

[7] = tested on: woolly cupgrass (Eriochloa villosa); conditions: Eriochloa villosa, post-emergence, Postemergence, scale 0 to 100 (0 no effect, 100 complete control), read-out: Cupgrass, Woolly plant response rating
In short: as §1

[8] = post-emergence, Postemergence, scale 0 to 100 (0 no effect, 100 complete control), read-out: Goosegrass plant response rating
[9] = post-emergence, Postemergence, scale 0 to 100, read-out: Plant response rating, Goosegrass
[10] = pre-emergence, Preemergence, scale 0 to 100, read-out: Plant response rating, Goosegrass
[11] = post-emergence, Postemergence, read-out: Plant response rating, Bermudagrass
[12] = pre-emergence, Preemergence, read-out: Plant response rating, Bermudagrass
[13] = post-emergence, Postemergence, scale 0 to 100 (0 no effect, 100 complete control), read-out: Ragweed plant response rating
[14] = post-emergence, Postemergence, scale 0 to 100, read-out: Plant response rating, Ragweed
[15] = pre-emergence, Preemergence, scale 0 to 100, read-out: Plant response rating, Ragweed
[16] = post-emergence, Postemergence, scale 0 to 100 (0 no effect, 100 complete control), read-out: Foxtail, Giant plant response rating
[17] = post-emergence, Postemergence, scale 0 to 100, read-out: Plant response rating, Foxtail, Giant
[18] = pre-emergence, Preemergence, scale 0 to 100, read-out: Plant response rating, Foxtail, Giant
[19] = post-emergence, Postemergence, scale 0 to 100 (0 no effect, 100 complete control), read-out: Velvetleaf plant response rating
[20] = post-emergence, Postemergence, scale 0 to 100, read-out: Plant response rating, Velvetleaf
[21] = pre-emergence, Preemergence, scale 0 to 100, read-out: Plant response rating, Velvetleaf

`CCOC(=O)c1nc(C2CC2)nc(N)c1Cl` [Compound 4, ethyl 6-amino-5-chloro-2-cyclopropyl-4-pyrimidinecarboxylate] showed a pest or weed control at 62 g/ha [1, 8] of 0%, a pest or weed control at 125 g/ha [1, 8] of 20% and a pest or weed control at 250 g/ha [1, 9] of 65%. The pest or weed control at 500 g/ha [1, 9] was 75%, the pest or weed control at 62 g/ha ([1]; pre-emergence, Preemergence, scale 0 to 100, 0 no effect, 100 complete control, read-out: Plant response rating, Goosegrass) was 0% and the pest or weed control at 125 g/ha [1, 10] was 25%. For the same molecule, the pest or weed control at 250 g/ha [1, 10] was 55%, the pest or weed control at 500 g/ha [1, 10] was 65% and the pest or weed control at 62 g/ha ([2]; post-emergence, Postemergence, scale 0 to 100 (0 no effect, 100 complete control), read-out: Bermudagrass plant response rating) was 40%. For the same molecule, the pest or weed control at 125 g/ha [2, 11] was 65%, the pest or weed control at 250 g/ha [2, 11] was 70% and the pest or weed control at 500 g/ha [2, 11] was 80%. The pest or weed control at 62 g/ha ([2]; pre-emergence, Preemergence, scale 0 to 100, 0 no effect, 100 complete control, read-out: Plant response rating, Bermudagrass) was 0%, the pest or weed control at 125 g/ha [2, 12] was 20% and the pest or weed control at 250 g/ha [2, 12] was 45%. The pest or weed control at 500 g/ha [2, 12] was 95%, the pest or weed control at 62 g/ha [3, 13] was 100% and the pest or weed control at 125 g/ha [3, 13] was 100%. For the same molecule, the pest or weed control at 250 g/ha [3, 14] was 100%, the pest or weed control at 500 g/ha [3, 14] was 100% and the pest or weed control at 62 g/ha ([3]; pre-emergence, Preemergence, scale 0 to 100, 0 no effect, 100 complete control, read-out: Plant response rating, Ragweed) was 100%. It also gave a pest or weed control at 125 g/ha [3, 15] of 100%, a pest or weed control at 250 g/ha [3, 15] of 100% and a pest or weed control at 500 g/ha [3, 15] of 100%. For the same molecule, the pest or weed control at 125 g/ha [4, 16] was 75%, the pest or weed control at 500 g/ha [4, 17] was 95% and the pest or weed control at 62 g/ha [4, 16] was 60%. The pest or weed control at 250 g/ha [4, 17] was 85%, the pest or weed control at 62 g/ha ([4]; pre-emergence, Preemergence, scale 0 to 100, 0 no effect, 100 complete control, read-out: Plant response rating, Foxtail, Giant) was 0% and the pest or weed control at 125 g/ha [4, 18] was 40%. The pest or weed control at 250 g/ha [4, 18] was 75%, the pest or weed control at 500 g/ha [4, 18] was 85% and the pest or weed control at 62 g/ha [5, 19] was 80%. For the same molecule, the pest or weed control at 125 g/ha [5, 19] was 100%, the pest or weed control at 250 g/ha [5, 20] was 100% and the pest or weed control at 500 g/ha [5, 20] was 100%. It also gave a pest or weed control at 62 g/ha ([5]; pre-emergence, Preemergence, scale 0 to 100, 0 no effect, 100 complete control, read-out: Plant response rating, Velvetleaf) of 75%, a pest or weed control at 125 g/ha [5, 21] of 95% and a pest or weed control at 250 g/ha [5, 21] of 95%. For the same molecule, the pest or weed control at 500 g/ha [5, 21] was 100%, the pest or weed control at 62 g/ha ([6]; 62 g ai/ha, scale 0 to 100, 0 no effect, 100 complete control) was 100% and the pest or weed control at 125 g/ha ([6]; 125 g ai/ha, scale 0 to 100) was 100%. The pest or weed control at 250 g/ha ([6]; 250 g ai/ha, scale 0 to 100) was 100%, the pest or weed control at 500 g/ha ([6]; 500 g ai/ha, scale 0 to 100) was 100% and the pest or weed control at 62 g/ha ([7]; 62 g ai/ha) was 60%. For the same molecule, the pest or weed control at 125 g/ha ([7]; 125 g ai/ha) was 70%.
